Experimental findings from PMC7726675 (Data in Brief, 2020) are described below.

Structures are written as SMILES.

The experiment has as its system AAR^CAp. The settings on record: read-out: KM^AcAcCoA; NADH fixed at 300 µM; 50 mM Tris pH 8, 5 mM MgCl2, 5 mM NaCl; 30 °C.

The Km is the substrate concentration at which the rate is half of its maximum. Take `CC(=O)CC(=O)SCCNC(=O)CCNC(=O)[C@H](O)C(C)(C)COP(=O)(O)OP(=O)(O)OC[C@H]1O[C@@H](n2cnc3c(N)ncnc32)[C@H](O)[C@@H]1OP(=O)(O)O` [acetoacetyl-CoA]: the Km amounted to 56.7 µM.
